Tested on: Alternaria solani
Experiment: Alternaria test (tomatoes) / preventive
Type: in vivo, Alternaria solani on tomatoes
Conditions: single active, preventive spray, evaluated 3 days after inoculation
From the text: The expected activity for a given combination of two active compounds can be calculated as follows (cf. Colby, S. R., “Calculating Synergistic and Antagonistic Responses of Herbicide Combinations”, Weeds 1967, 15, 20-22): If • X is the efficacy when active compound A is applied at an application rate of m ppm (or g/ha), • Y is the efficacy when active compound B is applied at an application rate of n ppm (or g/ha), • E is the efficacy when the active compounds A and B are applied at application rates of m and n ppm (or g/ha), respectively, and then
The degree of efficacy, expressed in % is denoted. 0% means an efficacy which corresponds to that of the control while an efficacy of 100% means that no disease is observed.
If the actual fungicidal activity exceeds the calculated value, then the activity of the combination is superadditive, i.e. a synergistic effect exists. In this case, the efficacy which was actually observed must be greater than the value for the expected efficacy (E) calculated from the abovementioned formula.
To produce a suitable preparation of active compound, 1 part by weight of active compound is mixed with the stated amounts of solvent and emulsifier, and the concentrate is diluted with water to the desired concentration. To test for preventive activity, young plants are sprayed with the preparation of active compound at the stated rate of application. After the spray coating has dried on, the plants are inoculated with an aqueous spore suspension of Alternaria solani. The plants are then placed in an incubation cabinet at approximately 20° C. and a relative atmospheric humidity of 100%. The test is evaluated 3 days after the inoculation. 0% means an efficacy which corresponds to that of the untreated control while an efficacy of 100% means that no disease is observed.

| SMILES | Efficacy in % found (application rate 0.5 ppm a.i.) [%] | Efficacy in % found (application rate 1 ppm a.i.) [%] | Efficacy in % found (application rate 2 ppm a.i.) [%] | Efficacy in % found (application rate 0.25 ppm a.i.) [%] |
| --- | --- | --- | --- | --- |
| Fc1ccc([C@]2(Cn3cncn3)O[C@H]2c2ccccc2Cl)cc1 (racemic) [Epoxiconazole, epoxiconazole] | 41 | 53 | 59 |  |
| OC(Cc1ccccc1Cl)(Cn1[nH]cnc1=S)C1(Cl)CC1 (stereo not drawn) [(A) Prothioconazole, 2-[2-(1-chlorocyclopropyl)-3-(2-chlorophenyl)-2-hydroxypropyl]-1,2-dihydro-3H-1,2,4-triazole-3-thione] | 0 | 18 | 41 |  |
| Cn1cc(C(=O)Nc2ccccc2-c2cc(F)c(F)c(F)c2)c(C(F)F)n1 [(B) Fluxapyroxad, 3-(difluoromethyl)-1-methyl-N-(3′,4′,5′-trifluorobiphenyl-2-yl)pyrazole-4-carboxamide] | 65 | 87 |  | 62 |
